Experimental data reported in patent publication US20260242373A1, “NBD1 MODULATORS AND METHODS OF USING THE SAME” (Sionna Therapeutics Inc., priority 2023, published 2026).

Legend:
NBD1 = experiment: Aggregation analysis of NBD1 thermal stability by differential static light scattering (DSLS); type: binding, Human; settings: 100 μM compound; ΔTagg versus DMSO control
Protocol: Purified recombinant NBD1 was produced using previously described methods (A. Schmidt, J. L. Mendoza, P. J. Thomas (2011) Biochemical and Biophysical Approaches to Probe CFTR Structure (365-376) M. D. Amaral, K. Kunzelmann (eds.), Cystic Fibrosis, Methods in Molecular Biology 741, Springer Science+Business Media). The effect of test compounds on thermal stability of NBD1 was evaluated by differential static light scattering (DSLS) using the Harbinger Stargazer-384 instrument (Epiphyte Three, Toronto, Canada). Test compounds were dissolved and diluted to desired concentrations in 100% DMSO. The compounds or DMSO controls (100 nL) were stamped into wells of a […] low volume optical plate (Corning Inc., Corning, NY) using the Echo 555 acoustic liquid handler (Labcyte Inc., San Jose, CA).
NBD1 protein was diluted to 0.2 mg/ml in S200 buffer (50 mM Tris-HCl, 150 mM NaCl, 5 mM MgCl2, 2 mM ATP, 2 mM DTT, pH7.6) containing 1% glycerol. 10 uL of protein solution was aliquoted into the 384-well plate harboring the test compounds and 10 uL mineral oil was overlayed onto the protein solution, using the epMotion robotic liquid handler (Eppendorf North America, Hauppauge, NY). After placing into the Stargazer instrument, the plate was heated at 1° C. per minute to 70° C. Images were captured from 25° C. to 70° C. every 0.5° C. At the end of the experiment run, instrument software integrated image files and analyzed data automatically. A […] regression curve was generated for each well, representing the increase in light scattering over time. A temperature of aggregation (Tagg) was calculated based on the inflection point of the curve. To better compare data across experiments the average Tagg for DMSO control wells was calculated and subtracted from values for wells containing compounds to obtain a “ΔTagg” value. These ΔTagg values reflect stabilizing efficacy of the compounds.

[1] = system: Primary human bronchial epithelial cells from a ΔF508 homozygous CF donor (CF-HBE cells); experiment: TECC24 recording of CFTR-mediated transepithelial chloride transport, AUC fold over DMSO; type: cell-based; settings: 48 hours incubation, ratio of test agent AUC to vehicle AUC of forskolin-stimulated IEQ
Protocol: The effects of a test agent on CFTR-mediated transepithelial chloride transport was measured using TECC24 recording analysis. Test agents were solubilized in DMSO. Solubilized test agents were mixed with incubation medium containing DMEM/F12, Ultroser G (2%; Crescent Chemical, catalog #67042), Hyclone Fetal Clone 11 (2%; GE Healthcare, catalog #SH30066.02), bovine brain extract (0.25%; Lonza, catalog #CC-4098), insulin (2.5 μg/mL), IL-13 (10 ng/mL), hydrocortisone (20 nM), transferrin ([…]), triiodothyronine (500 nM), ethanolamine (250 nM), epinephrine (1.5 μM), phosphoethanolamine (250 nM), and retinoic acid (10 nM). Primary human bronchial epithelial cells from a ΔF508 homozygous CF donor (CF-HBE cells; from University of North Carolina Cystic Fibrosis Tissue Procurement Center), grown on Transwell HTS 24-well cell culture inserts (Costar, catalog #3378), were exposed to test agents or controls dissolved in incubation medium. The CF-HBE cells were cultured at 36.5° C. for 48 hours before TECC24 recordings were performed in the presence or absence of test agent, a positive control or vehicle (DMSO).
Following incubation, the transwell cell culture inserts containing the test agent or control-treated CF-HBE cells were loaded onto a TECC24 apparatus (TECC v7 or MTECC v2; EP Design) to record the transepithelial voltage (VT) and resistance (TEER) using 4 AgCl electrodes per well configured in current-clamp mode. The apical and basolateral bath solutions both contained (in mM) 140 NaCl, 5 KCl, 2 CaCl2), 1 MgCl2, 10 Hepes, and 10 glucose (adjusted to pH 7.4 with NaOH). To inhibit basal Na+ absorption, the ENaC inhibitor benzamil (10 μM) was added to the bath. Then, the adenylate cyclase activator, forskolin ([…]), was added to the bath to activate CFTR. The forskolin-stimulated Cl— transport was halted by addition of CFTR inhibitor-172 ([…]) to the bath at the end of the experiment to confirm specificity. […] Efficacy is expressed as the ratio of the test agent AUC divided by vehicle AUC. […]

SMILES	DSLS NBD1/3D Human Stability delta-T (° C.) @ 100 (μM) (NBD1)	TECC24 @ 10 uM over DMSO [1]
C[C@@H](c1nc(-c2cc(Oc3c(F)cc4[nH]ccc4c3F)ccc2F)n(C)n1)c1ccc(CCC(=O)O)s1 (single isomer, unassigned) [Compound 44]	B (B: 4-8° C.)	C (“C” refers to AUC @ 10 uM <=4)
Cc1c(Oc2ccc(F)c(-c3nc(Cc4csc(CCC(=O)O)c4)c[nH]3)c2)c(F)cc2[nH]ccc12 [Compound 4, 3-(4-((2-(2-fluoro-5-((6-fluoro-4-methyl-1H-indol-5-yl)oxy)phenyl)-1H-imidazol-4-yl)methyl)thiophen-2-yl)propanoic acid]	B (B: 4-8° C.)	C (“C” refers to AUC @ 10 uM <=4)
c1cc(Oc2ccc3[nH]ccc3c2)cc(-c2nnc(Cc3cccs3)[nH]2)c1 [Compound 10, 5-(3-(5-(thiophen-2-ylmethyl)-4H-1,2,4-triazol-3-yl)phenoxy)-1H-indole]	C (C: ≤4° C.)	C (“C” refers to AUC @ 10 uM <=4)
O=C(O)CCc1cccc(Cc2cc(NCCO)n(-c3cc(Oc4c(F)cc5[nH]ccc5c4F)ccc3F)n2)c1 [Compound 56, 3-(3-((1-(5-((4,6-difluoro-1H-indol-5-yl)oxy)-2-fluorophenyl)-5-((2-hydroxyethyl)amino)-1H-pyrazol-3-yl)methyl)phenyl) propanoic acid]	B (B: 4-8° C.)	–
O=C(O)CCc1cccc(Cc2cc(N3CCCCC3=O)n(-c3cc(Oc4c(F)cc5[nH]ccc5c4F)ccc3F)n2)c1 [Compound 57, 3-[3-[[1-[5-[(4,6-difluoro-1H-indol-5-yl)oxy]-2-fluoro-phenyl]-5-(2-oxo-1-piperidyl)pyrazol-3-yl]methyl]phenyl]propanoic acid]	C (C: ≤4° C.)	–
O=C(O)CCc1cccc(Cc2cc(N3CCCC3=O)n(-c3cc(Oc4c(F)cc5[nH]ccc5c4F)ccc3F)n2)c1 [Compound 58, 3-[3-[[1-[5-[(4,6-difluoro-1H-indol-5-yl)oxy]-2-fluoro-phenyl]-5-(2-oxopyrrolidin-1-yl)pyrazol-3-yl]methyl]phenyl]propanoic acid]	C (C: ≤4° C.)	–
CC(c1cccc(CCC(=O)O)c1F)c1nn(-c2cc(Oc3c(F)cc4[nH]ccc4c3F)ccc2F)c2c1CCC2 (stereo not shown) [Compound 59, 3-[3-[1-[1-[5-[(4,6-difluoro-1H-indol-5-yl)oxy]-2-fluoro-phenyl]-5,6-dihydro-4H-cyclopenta[c]pyrazol-3-yl]ethyl]-2-fluoro-phenyl]propanoic acid]	C (C: ≤4° C.)	–
